*1 amine or outer side, *2 acyl side, *3 side chain or, on linkers, in order; H or OH if unused. Where a SMILES comes first, the peptide text is derived from it. Bridges are numbered along the chain shown (N, C = ends). Where no end group is shown, it is not given here. Side-chain parts run from the residue outwards. [ ]: non-standard residue; d: D form. The star is where a group is joined. PEG 40 kDa = PEG (40 kDa) covalently attached to Cys; γGlu = O=C(O)[C@H](CCC(=O)[*:2])N[*:1]; Stearoyl = CCCCCCCCCCCCCCCCCC(=O)*; Palmitoyl = CCCCCCCCCCCCCCCC(=O)*; Myristoyl = CCCCCCCCCCCCCC(=O)*; Aib = CC(C)(N)C(=O)O
How the values were obtained:
[1] = biological target: T1, glucagon receptor (Homo sapiens, UniProt P47871); assay: cAMP synthesis functional assay (firefly luciferase reporter in HEK293 cells), glucagon receptor; format: cell-based; conditions: for EC50: Glucagon Receptor EC50, cAMP luciferase reporter assay as in Example 16; for % activity at the glucagon receptor: Table 5
T1 construct: expressed in transfected cells; host or cells: HEK293
T1 sequence (P47871 26-477): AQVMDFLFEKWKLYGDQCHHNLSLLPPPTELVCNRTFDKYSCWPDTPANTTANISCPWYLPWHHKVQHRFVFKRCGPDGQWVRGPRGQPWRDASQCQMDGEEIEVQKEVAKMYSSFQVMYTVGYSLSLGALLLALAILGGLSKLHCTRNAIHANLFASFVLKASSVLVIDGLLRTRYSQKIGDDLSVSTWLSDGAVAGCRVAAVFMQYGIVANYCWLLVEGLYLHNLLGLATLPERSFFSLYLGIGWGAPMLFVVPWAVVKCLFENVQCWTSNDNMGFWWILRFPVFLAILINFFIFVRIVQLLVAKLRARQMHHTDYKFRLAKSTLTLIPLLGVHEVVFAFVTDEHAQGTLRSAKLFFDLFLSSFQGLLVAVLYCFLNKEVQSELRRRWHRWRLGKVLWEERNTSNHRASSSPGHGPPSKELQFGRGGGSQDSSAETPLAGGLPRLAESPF

[2] = Body weight of mice after peptide injection; conditions: DIO mice; for body weight: Example 31, subcutaneous daily for 1 week
[3] = biological target: T2, GIP receptor (Homo sapiens, UniProt P48546); assay: cAMP synthesis functional assay (firefly luciferase reporter in HEK293 cells), GIP receptor; format: cell-based; conditions: for % activity at the GIP receptor: Table 5
T2 construct: expressed in transfected cells; host or cells: HEK293
T2 sequence (P48546 22-466): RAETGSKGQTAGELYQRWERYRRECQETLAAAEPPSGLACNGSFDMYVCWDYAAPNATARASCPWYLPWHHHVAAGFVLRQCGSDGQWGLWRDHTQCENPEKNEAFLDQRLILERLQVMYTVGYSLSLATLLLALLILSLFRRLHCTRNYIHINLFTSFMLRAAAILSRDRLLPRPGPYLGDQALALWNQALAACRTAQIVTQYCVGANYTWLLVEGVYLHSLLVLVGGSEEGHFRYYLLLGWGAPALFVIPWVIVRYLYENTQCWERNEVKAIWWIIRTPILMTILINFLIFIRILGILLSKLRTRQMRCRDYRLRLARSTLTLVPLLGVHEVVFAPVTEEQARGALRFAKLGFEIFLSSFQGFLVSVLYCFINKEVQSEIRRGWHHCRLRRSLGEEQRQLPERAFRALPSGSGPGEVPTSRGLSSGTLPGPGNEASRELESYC

[4] = test system: glucagon receptor, GLP-1 receptor or GIP receptor; assay: Agonist profile across receptors assigned from the cAMP reporter assay data; format: cell-based; conditions: assigned from the in vitro EC50 data of Tables 1-4
[5] = biological target: T3, GLP-1 receptor (Homo sapiens, UniProt P43220); assay: cAMP synthesis functional assay (firefly luciferase reporter in HEK293 cells), GLP-1 receptor; format: cell-based; conditions: for % activity at the GLP-1 receptor: Table 5
T3 construct: expressed in transfected cells; host or cells: HEK293
T3 sequence (P43220 24-463, species assumed): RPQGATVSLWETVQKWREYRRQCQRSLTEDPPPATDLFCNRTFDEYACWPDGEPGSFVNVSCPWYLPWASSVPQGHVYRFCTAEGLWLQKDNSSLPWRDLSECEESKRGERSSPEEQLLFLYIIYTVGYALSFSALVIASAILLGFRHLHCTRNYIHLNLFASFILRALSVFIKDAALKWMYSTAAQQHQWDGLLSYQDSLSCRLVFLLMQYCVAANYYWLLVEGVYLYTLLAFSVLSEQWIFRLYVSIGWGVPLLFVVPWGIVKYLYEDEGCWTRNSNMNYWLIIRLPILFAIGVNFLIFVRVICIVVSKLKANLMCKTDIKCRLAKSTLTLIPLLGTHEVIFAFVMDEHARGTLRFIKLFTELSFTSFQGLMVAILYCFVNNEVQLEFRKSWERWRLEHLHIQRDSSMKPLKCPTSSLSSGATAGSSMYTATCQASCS

[6] = Blood glucose levels of mice after peptide injection; conditions: Example 30; 10 nmol/kg dose, Day 7 compared to Day 0
[7] = relative to the standard (Std.) EC50 of the same run
[8] = GIP Receptor EC50, cAMP luciferase reporter assay as in Example 16
[9] = Table 4, relative to the native hormone

| Compound | EC50 [1] | % activity at the glucagon receptor ([1]; relative to the native hormone) | Glucagon Receptor relative activity [1, 7] | body weight ([2]; 10 nmol/kg) | EC50 [3, 8] | % activity at the GIP receptor ([3]; relative to the native hormone) | GIP Receptor relative activity [3, 7] | receptor activity profile (glucagon / GLP-1 / GIP agonism) [4] | % activity at the GLP-1 receptor ([5]; relative to the native hormone) | GLP-1 Receptor relative activity [5, 7] | other results |
| --- | --- | --- | --- | --- | --- | --- | --- | --- | --- | --- | --- |
| CCCCCCCCCCCCCCCC(=O)NCCCC[C@H](NC(=O)[C@H](CO)NC(=O)[C@@H]1CCCN1C(=O)[C@@H]1CCCN1C(=O)[C@@H]1CCCN1C(=O)[C@H](C)NC(=O)CNC(=O)[C@H](CO)NC(=O)[C@H](CO)NC(=O)[C@@H]1CCCN1C(=O)CNC(=O)CNC(=O)[C@H](C)NC(=O)[C@H](CC(C)C)NC(=O)[C@H](CC(C)C)NC(=O)[C@H](Cc1c[nH]c2ccccc12)NC(=O)[C@H](CC(N)=O)NC(=O)[C@@H](NC(=O)[C@H](Cc1ccccc1)NC(=O)[C@H](CCC(=O)O)NC(=O)C(C)(C)NC(=O)[C@H](C)NC(=O)[C@H](C)NC(=O)[C@H](CCC(N)=O)NC(=O)[C@H](CCCCN)NC(=O)[C@H](CC(=O)O)NC(=O)[C@H](CC(C)C)NC(=O)[C@H](Cc1ccc(O)cc1)NC(=O)[C@@H](NC(=O)[C@H](CO)NC(=O)[C@H](Cc1ccc(O)cc1)NC(=O)[C@H](CC(=O)O)NC(=O)[C@H](CO)NC(=O)[C@@H](NC(=O)[C@H](Cc1ccccc1)NC(=O)[C@@H](NC(=O)CNC(=O)[C@H](CCC(N)=O)NC(=O)C(C)(C)NC(=O)[C@@H](N)Cc1ccc(O)cc1)[C@@H](C)O)[C@@H](C)O)[C@@H](C)CC)C(C)C)C(N)=O [mt-278] (H-Y[Aib]QGTFTSDYSIYLDKQAA[Aib]EFVNWLLAGGPSSGAPPPSK(Palmitoyl)-NH2; N-terminus assumed) | 8.6 pM | 588% | 588.37% | caused significant weight loss in the mice | 0.0028 nM | 846% | 846.43% | exhibited activity at the GIP, GLP-1, and glucagon receptors | 460% | 459.52% | – |
| CCCCCCCCCCCCCCCCCC(=O)NCCCC[C@H](NC(=O)[C@H](CO)NC(=O)[C@@H]1CCCN1C(=O)[C@@H]1CCCN1C(=O)[C@@H]1CCCN1C(=O)[C@H](C)NC(=O)CNC(=O)[C@H](CO)NC(=O)[C@H](CO)NC(=O)[C@@H]1CCCN1C(=O)CNC(=O)CNC(=O)[C@H](C)NC(=O)[C@H](CC(C)C)NC(=O)[C@H](CC(C)C)NC(=O)[C@H](Cc1c[nH]c2ccccc12)NC(=O)[C@H](CC(N)=O)NC(=O)[C@@H](NC(=O)[C@H](Cc1ccccc1)NC(=O)[C@H](CCC(=O)O)NC(=O)C(C)(C)NC(=O)[C@H](C)NC(=O)[C@H](C)NC(=O)[C@H](CCC(N)=O)NC(=O)[C@H](CCCCN)NC(=O)[C@H](CC(=O)O)NC(=O)[C@H](CC(C)C)NC(=O)[C@H](Cc1ccc(O)cc1)NC(=O)[C@@H](NC(=O)[C@H](CO)NC(=O)[C@H](Cc1ccc(O)cc1)NC(=O)[C@H](CC(=O)O)NC(=O)[C@H](CO)NC(=O)[C@@H](NC(=O)[C@H](Cc1ccccc1)NC(=O)[C@@H](NC(=O)CNC(=O)[C@H](CCC(N)=O)NC(=O)C(C)(C)NC(=O)[C@@H](N)Cc1ccc(O)cc1)[C@@H](C)O)[C@@H](C)O)[C@@H](C)CC)C(C)C)C(N)=O [mt-279] (H-Y[Aib]QGTFTSDYSIYLDKQAA[Aib]EFVNWLLAGGPSSGAPPPSK(Stearoyl)-NH2; N-terminus assumed) | 6.9 pM | 733% | 733.33% | caused significant weight loss in the mice | 0.0045 nM | 527% | 526.67% | exhibited activity at the GIP, GLP-1, and glucagon receptors | 420% | 419.57% | – |
| mt-170: lactam-containing GLP-1/GIP/glucagon triagonist peptide, C-terminal amide (Y[Aib]QGTFTSDYSIYLDEQAAKEFVNWLLAGGPSSGAPPPSC(PEG 40 kDa)-NH2; lactam 16-20) | – | – | – | – | – | – | – | exemplary GLP-1/GIP/glucagon triagonist peptides | – | – | reduction of body weight ([2]; Example 22, subcutaneous QW, 70 or 210 nmol/kg/week): a little more effective at reducing body weight in the mice as Chimera 2 AIB2, but not as effective as Chimera 2 AIB2 lactam |
| CCCCCCCCCCCCCC(=O)NCCCC[C@H](NC(=O)[C@H](CO)NC(=O)[C@@H]1CCCN1C(=O)[C@@H]1CCCN1C(=O)[C@@H]1CCCN1C(=O)[C@H](C)NC(=O)CNC(=O)[C@H](CO)NC(=O)[C@H](CO)NC(=O)[C@@H]1CCCN1C(=O)CNC(=O)CNC(=O)[C@H](C)NC(=O)[C@H](CC(C)C)NC(=O)[C@H](CC(C)C)NC(=O)[C@H](Cc1c[nH]c2ccccc12)NC(=O)[C@H](CC(N)=O)NC(=O)[C@@H](NC(=O)[C@H](Cc1ccccc1)NC(=O)[C@H](CCC(=O)O)NC(=O)C(C)(C)NC(=O)[C@H](C)NC(=O)[C@H](C)NC(=O)[C@H](CCC(N)=O)NC(=O)[C@H](CCCCN)NC(=O)[C@H](CC(=O)O)NC(=O)[C@H](CC(C)C)NC(=O)[C@H](Cc1ccc(O)cc1)NC(=O)[C@@H](NC(=O)[C@H](CO)NC(=O)[C@H](Cc1ccc(O)cc1)NC(=O)[C@H](CC(=O)O)NC(=O)[C@H](CO)NC(=O)[C@@H](NC(=O)[C@H](Cc1ccccc1)NC(=O)[C@@H](NC(=O)CNC(=O)[C@H](CCC(N)=O)NC(=O)C(C)(C)NC(=O)[C@@H](N)Cc1ccc(O)cc1)[C@@H](C)O)[C@@H](C)O)[C@@H](C)CC)C(C)C)C(N)=O [mt-277] (H-Y[Aib]QGTFTSDYSIYLDKQAA[Aib]EFVNWLLAGGPSSGAPPPSK(Myristoyl)-NH2; N-terminus assumed) | 21.5 pM | 235% | 235.35% | caused significant weight loss in the mice | – | 446% | 455.77% | exhibited activity at the GIP, GLP-1, and glucagon receptors | 224% | 224.42% | – |
| CC[C@H](C)[C@H](NC(=O)[C@H](CO)NC(=O)[C@H](Cc1ccc(O)cc1)NC(=O)[C@H](CC(=O)O)NC(=O)[C@H](CO)NC(=O)[C@@H](NC(=O)[C@H](Cc1ccccc1)NC(=O)[C@@H](NC(=O)CNC(=O)[C@H](CCC(=O)O)NC(=O)C(C)(C)NC(=O)[C@@H](N)Cc1ccc(O)cc1)[C@@H](C)O)[C@@H](C)O)C(=O)N[C@@H](Cc1ccc(O)cc1)C(=O)N[C@@H](CC(C)C)C(=O)N[C@@H](CC(=O)O)C(=O)N[C@@H](CCCCN)C(=O)N[C@@H](CCC(N)=O)C(=O)N[C@@H](C)C(=O)N[C@@H](C)C(=O)NC(C)(C)C(=O)N[C@@H](CCC(=O)O)C(=O)N[C@@H](Cc1ccccc1)C(=O)N[C@H](C(=O)N[C@@H](CC(N)=O)C(=O)N[C@@H](Cc1c[nH]c2ccccc12)C(=O)N[C@@H](CC(C)C)C(=O)N[C@@H](CC(C)C)C(=O)N[C@@H](C)C(=O)NCC(=O)NCC(=O)N1CCC[C@H]1C(=O)N[C@@H](CO)C(=O)N[C@@H](CO)C(=O)NCC(=O)N[C@@H](C)C(=O)N1CCC[C@H]1C(=O)N1CCC[C@H]1C(=O)N1CCC[C@H]1C(=O)N[C@@H](CO)C(=O)N[C@@H](CCCCN)C(N)=O)C(C)C [mt-263] | – | – | – | – | 0.0031 nM | – | – | – | – | – | decrease in blood glucose levels [6]: ~-80 mg/dL |
| CCCCCCCCCCCCCCCC(=O)N[C@@H](CCC(=O)N[C@@H](CCC(=O)NCCCC[C@H](NC(=O)[C@H](CC(=O)O)NC(=O)[C@H](CO)NC(=O)[C@@H](NC(=O)[C@H](Cc1ccccc1)NC(=O)[C@@H](NC(=O)CNC(=O)[C@H](CCC(=O)O)NC(=O)C(C)(C)NC(=O)[C@@H](N)Cc1ccc(O)cc1)[C@@H](C)O)[C@@H](C)O)C(=O)N[C@@H](CO)C(=O)N[C@H](C(=O)N[C@@H](Cc1ccc(O)cc1)C(=O)N[C@@H](CC(C)C)C(=O)N[C@@H](CC(=O)O)C(=O)N[C@@H](CCCCN)C(=O)N[C@@H](CCC(N)=O)C(=O)N[C@@H](C)C(=O)N[C@@H](C)C(=O)NC(C)(C)C(=O)N[C@@H](CCC(=O)O)C(=O)N[C@@H](Cc1ccccc1)C(=O)N[C@H](C(=O)N[C@@H](CC(N)=O)C(=O)N[C@@H](Cc1c[nH]c2ccccc12)C(=O)N[C@@H](CC(C)C)C(=O)N[C@@H](CC(C)C)C(=O)N[C@@H](C)C(=O)NCC(=O)NCC(=O)N1CCC[C@H]1C(=O)N[C@@H](CO)C(=O)N[C@@H](CO)C(=O)NCC(=O)N[C@@H](C)C(=O)N1CCC[C@H]1C(=O)N1CCC[C@H]1C(=O)N1CCC[C@H]1C(=O)N[C@@H](CO)C(=O)N[C@@H](CCCCN)C(N)=O)C(C)C)[C@@H](C)CC)C(=O)O)C(=O)O [mt-369] (H-Y[Aib]EGTFTSDK([γGlu-γGlu-Palmitoyl])SIYLDKQAA[Aib]EFVNWLLAGGPSSGAPPPSK-NH2; N-terminus assumed) | – | – | – | – | – | – | – | – | – | – | Glucagon Receptor relative activity [1, 9]: 1.54%; % Relative activity at the Receptor for Glucagon ([1]; Table 8): 1.54%; total change in body weight (weight loss, decrease) ([2]; Example 41, subcutaneous daily for 7 days, 10 nmol/kg, Day 7): ~25%; EC50 ([3]; GIP Receptor EC50, nM, Table 4): 0.0014 nM; GIP Receptor relative activity [3, 9]: 204.26%; % Relative activity at the Receptor for GIP ([3]; Table 8): 204.26%; GLP-1 Receptor relative activity [5, 9]: 385.05%; % Relative activity at the Receptor for GLP-1 ([5]; Table 8): 385.05% |

From patent US9062124B2, “GIP-based mixed agonists for treatment of metabolic disorders and obesity” (priority 2008, dated 2015)
